PubChem BioAssay (NCI)
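Method: 48-hour compound exposure of cells in 96-well plates, five concentrations, linear interpolation of endpoints. GI50 marks 50% less growth. TGI denotes the concentration required for complete inhibition of growth.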

Key:
Test in all cases: growth of human tumour cells (NCI), 48 h
786-0 renal = system: 786-0 renal
OVCAR-3 ovarian = system: OVCAR-3 ovarian
RPMI-8226 leukemia = system: RPMI-8226 leukemia
ACHN renal = system: ACHN renal
UACC-62 melanoma = system: UACC-62 melanoma
CCRF-CEM leukemia = system: CCRF-CEM leukemia
SN12C renal = system: SN12C renal
IGROV1 ovarian = system: IGROV1 ovarian
HL-60(TB) leukemia = system: HL-60(TB) leukemia
OVCAR-8 ovarian = system: OVCAR-8 ovarian

SMILES	GI50 (786-0 renal) [µM]	TGI (786-0 renal) [µM]	GI50 (OVCAR-3 ovarian) [µM]	TGI (OVCAR-3 ovarian) [µM]	GI50 (RPMI-8226 leukemia) [µM]	TGI (RPMI-8226 leukemia) [µM]	GI50 (ACHN renal) [µM]	TGI (ACHN renal) [µM]	GI50 (UACC-62 melanoma) [µM]	TGI (UACC-62 melanoma) [µM]	GI50 (CCRF-CEM leukemia) [µM]	TGI (CCRF-CEM leukemia) [µM]	GI50 (SN12C renal) [µM]	TGI (SN12C renal) [µM]	GI50 (IGROV1 ovarian) [µM]	TGI (IGROV1 ovarian) [µM]	GI50 (HL-60(TB) leukemia) [µM]	TGI (HL-60(TB) leukemia) [µM]	GI50 (OVCAR-8 ovarian) [µM]	TGI (OVCAR-8 ovarian) [µM]
CCCCN(Cc1ccc(F)cc1)c1ccc(CO)c(Cl)c1	12.2	25.6	3.74	12.9	10.1	36.3	15.4	29.7	0.903	4.84	15.8	38.1	12.5	25.3	0.677	3.49	14.1	34	14.2	28.5
CC(=O)O[C@@H]1CC2C(C)(C)CCCC2(C)C2=C1C(=O)C(C(C)C)=CC2=O (stereo not given in full)	0.781	6.95	1.51	3.36	0.948	93.4	0.644	1.96	0.458	2.07	2.79	> 100	1.28	4.89	1.49	4.87	0.744	4.28	2.64	15.9
Oc1ccc(CCCCCCc2ccc(O)cc2)cc1	3.65	15.1	6.02	17.8	12.1	> 69	1.55	12	4.24	15.3	0.0471	32.8	9.22	24.3	8.83	28.4	0.839	18.7	5.18	20.2
C[C@@H]1COCCN1c1cc(C2(S(C)(=N)=O)CC2)nc(-c2ccnc3[nH]ccc23)n1 (stereo not given in full)	1.25	96.8	5.76	38.9	5.73	36.1	0.592	4.3	2.01	11	1.55	> 100	4.77	89.6	3.63	63.1	4	> 100	5.41	58.5
N#CC(C(=O)C(=O)NCCCNC(=O)C(=O)C(C#N)c1ccccc1)c1ccccc1 (stereo not given)		> 100		> 100		> 100		> 100		> 100		> 100		> 100		> 100		> 100		> 100
COc1ccc(NC(=O)c2cc(OC)c(OC)c(OC)c2)cc1		> 100		> 100		> 100		> 100		> 100		> 100		> 100		> 100		68		> 100
COc1cccc(C(=O)C2C(=O)N(C)CCc3ccccc32)c1OC (stereo not given)		> 100		> 100		> 100		> 100		> 100		> 100		> 100		> 100		> 100		> 100
